Biological target: T1, CK1α (Homo sapiens, UniProt P48729+Q96SW2)
T1 construct: expressed in transfected cells
Assay: CK1α ePL degradation assay in MDS-L cells
Assay type: cell-based
Conditions: MDS-L cells expressing ePL-tagged CK1α; for DC50: concentration giving 50% CK1α degradation vs DMSO control; for Y: lowest measured CK1α level normalized to DMSO control
Protocol: The following is an example of an assay that can be used to determine the CK1α degradation activity of Isoindolinone Carboxamide Compounds in a cell line, for example, the MDS-L cell line.
Compounds were dispensed by an acoustic dispenser (ATS acoustic transfer system from EDC Biosystems) into a 384-well in a 10 point dose-response curve using 3-fold dilutions starting at 10 μM and going down to 0.0005 μM in DMSO. […] Assay plates were incubated at 37° C. with 5% CO2 for the indicated times. At the different time points, 25 μL of the InCELL Hunter™ Detection Reagent Working Solution (catalog number 96-0002, DiscoverX, Fremont, Calif.) was added to each well and incubated at RT for 30 min protected from light. After 30 min, luminescence was read on a PHERAstar luminometer (BMG LABTECH, Cary, N.C.).
CK1α levels in compound-treated wells were normalized to that of DMSO control and expressed as percent of control (PoC) (y).
The lowest measured CK1α level normalized to DMSO control in response to compound treatment, termed Y value, was used to characterize the compound-mediated CK1α degradation efficiency.

T1 sequence (P48729 whole entry): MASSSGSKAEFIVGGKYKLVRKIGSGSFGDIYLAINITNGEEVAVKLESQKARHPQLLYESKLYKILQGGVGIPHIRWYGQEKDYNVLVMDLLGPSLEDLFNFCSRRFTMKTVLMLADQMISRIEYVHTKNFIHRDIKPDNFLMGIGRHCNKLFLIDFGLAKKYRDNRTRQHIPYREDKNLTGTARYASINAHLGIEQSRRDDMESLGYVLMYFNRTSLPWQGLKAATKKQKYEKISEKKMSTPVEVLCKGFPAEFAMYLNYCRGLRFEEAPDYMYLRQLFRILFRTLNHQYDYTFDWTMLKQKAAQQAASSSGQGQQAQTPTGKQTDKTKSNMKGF
T1 sequence (Q96SW2 whole entry): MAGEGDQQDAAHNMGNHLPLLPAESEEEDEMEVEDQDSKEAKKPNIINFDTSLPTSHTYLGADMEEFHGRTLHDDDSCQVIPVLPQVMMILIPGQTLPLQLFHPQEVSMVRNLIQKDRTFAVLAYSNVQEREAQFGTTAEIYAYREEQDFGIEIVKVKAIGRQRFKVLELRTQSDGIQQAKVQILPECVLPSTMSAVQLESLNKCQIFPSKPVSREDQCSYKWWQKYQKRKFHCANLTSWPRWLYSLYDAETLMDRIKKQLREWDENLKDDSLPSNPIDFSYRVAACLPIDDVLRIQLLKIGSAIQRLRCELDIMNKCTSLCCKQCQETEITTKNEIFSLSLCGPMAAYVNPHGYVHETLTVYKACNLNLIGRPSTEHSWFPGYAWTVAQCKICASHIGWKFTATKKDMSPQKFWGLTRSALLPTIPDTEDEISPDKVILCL
T1 sequence (Q16531 whole entry partner): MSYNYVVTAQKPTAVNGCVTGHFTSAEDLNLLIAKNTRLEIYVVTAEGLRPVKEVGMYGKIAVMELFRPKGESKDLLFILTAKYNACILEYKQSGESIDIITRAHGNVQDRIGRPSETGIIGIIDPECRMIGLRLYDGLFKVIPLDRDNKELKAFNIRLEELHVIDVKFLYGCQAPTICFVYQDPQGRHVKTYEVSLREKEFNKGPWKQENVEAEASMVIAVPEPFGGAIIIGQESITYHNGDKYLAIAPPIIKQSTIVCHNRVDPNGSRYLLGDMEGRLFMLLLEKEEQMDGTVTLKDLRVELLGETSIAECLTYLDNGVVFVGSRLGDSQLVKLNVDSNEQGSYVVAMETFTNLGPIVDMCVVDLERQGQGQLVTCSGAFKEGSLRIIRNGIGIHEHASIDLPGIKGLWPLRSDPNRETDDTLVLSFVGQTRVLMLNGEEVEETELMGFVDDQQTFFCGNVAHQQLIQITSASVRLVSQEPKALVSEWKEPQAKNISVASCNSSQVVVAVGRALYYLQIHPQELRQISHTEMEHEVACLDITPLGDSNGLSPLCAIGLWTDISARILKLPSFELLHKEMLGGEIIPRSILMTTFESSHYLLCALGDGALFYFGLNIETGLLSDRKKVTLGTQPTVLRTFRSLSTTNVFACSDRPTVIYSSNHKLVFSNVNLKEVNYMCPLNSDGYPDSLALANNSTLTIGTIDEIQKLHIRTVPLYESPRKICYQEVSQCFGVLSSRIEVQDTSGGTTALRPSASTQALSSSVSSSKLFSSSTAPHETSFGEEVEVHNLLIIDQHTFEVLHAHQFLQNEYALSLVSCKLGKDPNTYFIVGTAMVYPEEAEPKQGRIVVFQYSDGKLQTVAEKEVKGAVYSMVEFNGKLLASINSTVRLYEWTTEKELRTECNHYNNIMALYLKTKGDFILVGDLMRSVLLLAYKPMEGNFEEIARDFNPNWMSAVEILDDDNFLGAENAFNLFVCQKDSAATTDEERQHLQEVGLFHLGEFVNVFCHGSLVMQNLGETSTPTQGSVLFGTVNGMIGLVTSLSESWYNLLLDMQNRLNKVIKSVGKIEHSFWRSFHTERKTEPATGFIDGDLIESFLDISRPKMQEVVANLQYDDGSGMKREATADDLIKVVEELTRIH

Row | SMILES | DC50 [nM] | Y
1 | O=C1CCC(N2Cc3c(ccc(C(=O)N[C@H](c4ccccc4C(F)(F)F)C(F)(F)F)c3F)C2=O)C(=O)N1 (stereo partly drawn) [Example 98, 2-(2,6-dioxopiperidin-3-yl)-4-fluoro-1-oxo-N-((R)-2,2,2-trifluoro-1-(2-(trifluoromethyl)phenyl)ethyl)isoindoline-5-carboxamide] | < 100 | * (a Y value (shown as *) of 0<Y≤20%)
2 | O=C1CCC(N2Cc3cc(C(=O)N[C@H](c4ccccc4C(F)(F)F)C(F)(F)F)ccc3C2=O)C(=O)N1 (stereo partly drawn) [Example 47, 2-(2,6-dioxopiperidin-3-yl)-1-oxo-N-((R)-2,2,2-trifluoro-1-(2-(trifluoromethyl)phenyl)ethyl)isoindoline-5-carboxamide] | < 100 | * (a Y value (shown as *) of 0<Y≤20%)
3 | O=C1CCC(N2Cc3c(ccc(C(=O)N[C@@H](CC(F)(F)F)c4ccc(Cl)cc4)c3F)C2=O)C(=O)N1 (stereo partly drawn) [Example 129, N-((S)-1-(4-chlorophenyl)-3,3,3-trifluoropropyl)-2-(2,6-dioxopiperidin-3-yl)-4-fluoro-1-oxoisoindoline-5-carboxamide] | 500 to 1000 | *** (a Y value (shown as***) of 35%<Y<50%)
4 | C[C@H](NC(=O)c1ccc2c(c1)CN(C1CCC(=O)NC1=O)C2=O)c1ccccn1 (some centres unmarked) [Example 10] | 100 to 500 | ** (a Y value (shown as**) of 20%<Y≤35%)
5 | O=C1CCC(N2Cc3cc(C(=O)N[C@H](c4ccc(F)cc4)C(F)F)ccc3C2=O)C(=O)N1 (stereo partly drawn) [Example 111, N-((R)-2,2-difluoro-1-(4-fluorophenyl)ethyl)-2-(2,6-dioxopiperidin-3-yl)-1-oxoisoindoline-5-carboxamide] | < 100 | * (a Y value (shown as *) of 0<Y≤20%)
6 | O=C1CCC(N2Cc3cc(C(=O)N[C@H](c4cnccn4)C(F)(F)F)ccc3C2=O)C(=O)N1 (stereo partly drawn) [Example 82, 2-(2,6-dioxopiperidin-3-yl)-1-oxo-N-((R)-2,2,2-trifluoro-1-(pyrazin-2-yl)ethyl)isoindoline-5-carboxamide] | 100 to 500 | ** (a Y value (shown as**) of 20%<Y≤35%)
7 | O=C1CCC(N2Cc3c(ccc(C(=O)N[C@H](c4cccc(F)c4)C(F)(F)F)c3F)C2=O)C(=O)N1 (stereo partly drawn) [Example 108, 2-(2,6-dioxopiperidin-3-yl)-4-fluoro-1-oxo-N-((R)-2,2,2-trifluoro-1-(3-fluorophenyl)ethyl)isoindoline-5-carboxamide] | 100 to 500 | ** (a Y value (shown as**) of 20%<Y≤35%)
8 | O=C1CCC(N2Cc3c(ccc(C(=O)N[C@H](c4cccc(C(F)(F)F)c4)C(F)(F)F)c3F)C2=O)C(=O)N1 (stereo partly drawn) [Example 97, 2-(2,6-dioxopiperidin-3-yl)-4-fluoro-1-oxo-N-((R)-2,2,2-trifluoro-1-(3-(trifluoromethyl)phenyl)ethyl)isoindoline-5-carboxamide] | 100 to 500 | ** (a Y value (shown as**) of 20%<Y≤35%)
9 | Cn1ccc([C@@H](NC(=O)c2ccc3c(c2)CN(C2CCC(=O)NC2=O)C3=O)C(F)(F)F)n1 (stereo partly drawn) [Example 65, 2-(2,6-dioxopiperidin-3-yl)-1-oxo-N-((R)-2,2,2-trifluoro-1-(1-methyl-1H-pyrazol-3-yl)ethyl)isoindoline-5-carboxamide] | 500 to 1000 | ** (a Y value (shown as**) of 20%<Y≤35%)
10 | O=C1CCC(N2Cc3cc(C(=O)N[C@H](c4ccc(Cl)cc4F)C(F)(F)F)ccc3C2=O)C(=O)N1 (stereo partly drawn) [Example 79, N-((R)-1-(4-chloro-2-fluorophenyl)-2,2,2-trifluoroethyl)-2-(2,6-dioxopiperidin-3-yl)-1-oxoisoindoline-5-carboxamide] | < 100 | * (a Y value (shown as *) of 0<Y≤20%)
11 | C[C@H](NC(=O)c1ccc2c(c1)CN(C1CCC(=O)NC1=O)C2=O)c1cccc(Cl)c1 (some centres unmarked) [Example 15] | < 100 | * (a Y value (shown as *) of 0<Y≤20%)
12 | O=C1CCC(N2Cc3cc(C(=O)N[C@H](C4CCC5(CCC5)CC4)C(F)(F)F)ccc3C2=O)C(=O)N1 (stereo partly drawn) [Example 53, 2-(2,6-dioxopiperidin-3-yl)-1-oxo-N-((1R)-2,2,2-trifluoro-1-(spiro[3.5]nonan-7-yl)ethyl)isoindoline-5-carboxamide] | < 100 | * (a Y value (shown as *) of 0<Y≤20%)
13 | O=C1CCC(N2Cc3c(ccc(C(=O)N[C@H](c4ccc(F)cn4)C(F)(F)F)c3F)C2=O)C(=O)N1 (stereo partly drawn) [Example 115, 2-(2,6-dioxopiperidin-3-yl)-4-fluoro-1-oxo-N-((R)-2,2,2-trifluoro-1-(5-fluoropyridin-2-yl)ethyl)isoindoline-5-carboxamide] | 100 to 500 | ** (a Y value (shown as**) of 20%<Y≤35%)

The next lines start with the values.

Row | DC50 [nM] | Y | SMILES
14 | 100 to 500 | ** (a Y value (shown as**) of 20%<Y≤35%) | O=C1CCC(N2Cc3c(ccc(C(=O)N[C@H](c4ccc(OC(F)(F)F)cc4)C(F)(F)F)c3F)C2=O)C(=O)N1 (stereo partly drawn) [Example 135, 2-(2,6-dioxopiperidin-3-yl)-4-fluoro-1-oxo-N-((R)-2,2,2-trifluoro-1-(4-(trifluoromethoxy)phenyl)ethyl)isoindoline-5-carboxamide]
15 | < 100 | * (a Y value (shown as *) of 0<Y≤20%) | CN(C)Cc1ccc([C@@H](NC(=O)c2ccc3c(c2)CN(C2CCC(=O)NC2=O)C3=O)C(F)(F)F)c(Cl)c1 (stereo partly drawn) [Example 198, N-((R)-1-(2-chloro-4-((dimethylamino)methyl)phenyl)-2,2,2-trifluoroethyl)-2-(2,6-dioxopiperidin-3-yl)-1-oxoisoindoline-5-carboxamide]
16 | < 100 | * (a Y value (shown as *) of 0<Y≤20%) | O=C1CCC(N2Cc3cc(C(=O)N[C@H](c4ccccc4N4CCOCC4)C(F)(F)F)ccc3C2=O)C(=O)N1 (stereo partly drawn) [Example 205, 2-(2,6-dioxopiperidin-3-yl)-1-oxo-N-((R)-2,2,2-trifluoro-1-(2-morpholinophenyl)ethyl)isoindoline-5-carboxamide]
17 | < 100 | * (a Y value (shown as *) of 0<Y≤20%) | O=C1CCC(N2Cc3cc(C(=O)N[C@H](c4ccc(CN5CCC5)cc4)C(F)(F)F)ccc3C2=O)C(=O)N1 (stereo partly drawn) [Example 189, N-((R)-1-(4-(azetidin-1-ylmethyl)phenyl)-2,2,2-trifluoroethyl)-2-(2,6-dioxopiperidin-3-yl)-1-oxoisoindoline-5-carboxamide]
18 | 100 to 500 | ** (a Y value (shown as**) of 20%<Y≤35%) | O=C1CCC(N2Cc3cc(C(=O)N[C@H](c4ccc(Oc5ccccc5)cc4)C(F)(F)F)ccc3C2=O)C(=O)N1 (stereo partly drawn) [Example 147, 2-(2,6-dioxopiperidin-3-yl)-1-oxo-N-((R)-2,2,2-trifluoro-1-(4-phenoxyphenyl)ethyl)isoindoline-5-carboxamide]
19 | 100 to 500 | ** (a Y value (shown as**) of 20%<Y≤35%) | O=C1CCC(N2Cc3c(ccc(C(=O)N[C@H](c4ccc(OC5CC5)cc4)C(F)(F)F)c3F)C2=O)C(=O)N1 (stereo partly drawn) [Example 130, N-((R)-1-(4-cyclopropoxyphenyl)-2,2,2-trifluoroethyl)-2-(2,6-dioxopiperidin-3-yl)-4-fluoro-1-oxoisoindoline-5-carboxamide]
20 | < 100 | * (a Y value (shown as *) of 0<Y≤20%) | O=C1CCC(N2Cc3c(ccc(C(=O)N[C@H](c4ncccc4Cl)C(F)(F)F)c3F)C2=O)C(=O)N1 (stereo partly drawn) [Example 139, N-((R)-1-(3-chloropyridin-2-yl)-2,2,2-trifluoroethyl)-2-(2,6-dioxopiperidin-3-yl)-4-fluoro-1-oxoisoindoline-5-carboxamide]
21 | < 100 | * (a Y value (shown as *) of 0<Y≤20%) | O=C1CCC(N2Cc3cc(C(=O)N[C@H](CC(F)(F)F)c4ccccc4F)ccc3C2=O)C(=O)N1 (stereo partly drawn) [Example 195, 2-(2,6-dioxopiperidin-3-yl)-1-oxo-N-((R)-3,3,3-trifluoro-1-(2-fluorophenyl)propyl)isoindoline-5-carboxamide]
22 | < 100 | * (a Y value (shown as *) of 0<Y≤20%) | O=C1CCC(N2Cc3cc(C(=O)N[C@H](c4c(F)cccc4Cl)C(F)(F)F)ccc3C2=O)C(=O)N1 (stereo partly drawn) [Example 151, N-((R)-1-(2-chloro-6-fluorophenyl)-2,2,2-trifluoroethyl)-2-(2,6-dioxopiperidin-3-yl)-1-oxoisoindoline-5-carboxamide]
23 | < 100 | * (a Y value (shown as *) of 0<Y≤20%) | O=C1CCC(N2Cc3cc(C(=O)N[C@H](c4cccc(C(F)(F)F)n4)C(F)(F)F)ccc3C2=O)C(=O)N1 (stereo partly drawn) [Example 125, 2-(2,6-dioxopiperidin-3-yl)-1-oxo-N-((R)-2,2,2-trifluoro-1-(6-(trifluoromethyl)pyridin-2-yl)ethyl)isoindoline-5-carboxamide]
24 | 100 to 500 | ** (a Y value (shown as**) of 20%<Y≤35%) | O=C1CCC(N2Cc3c(ccc(C(=O)N[C@H](c4ccc(F)cc4)C(F)(F)F)c3Cl)C2=O)C(=O)N1 (stereo partly drawn) [Example 153, 4-chloro-2-(2,6-dioxopiperidin-3-yl)-1-oxo-N-((R)-2,2,2-trifluoro-1-(4-fluorophenyl)ethyl)isoindoline-5-carboxamide]
25 | < 100 | * (a Y value (shown as *) of 0<Y≤20%) | O=C1CCC(N2Cc3cc(C(=O)N[C@H](c4cccc(N5CCOCC5)c4)C(F)(F)F)ccc3C2=O)C(=O)N1 (stereo partly drawn) [Example 201, 2-(2,6-dioxopiperidin-3-yl)-1-oxo-N-((R)-2,2,2-trifluoro-1-(3-morpholinophenyl)ethyl)isoindoline-5-carboxamide]

Source: patent publication US11306101B2 (Celgene Corporation, priority 2019, dated 2022)
